Residues, ends and D or L forms follow the SMILES beside them.

In one assay the test system is S. saprophyticus. As to the kind of experiment: Bactericidal or bacteriostatic effect, spreading on Petri dishes and counting colonies. Format: cell-based, Staphylococcus saprophyticus. The following applies: colonies counted after 24 h of incubation, Yes/No. As for the experimental part: (§1) The bactericidal or bacteriostatic effect of the peptide was determined by spreading on Petri dishes and counting the colonies present after 24 h of incubation.

For assay [1], the system named is Aspergillus fumigatus. Nature of the assay: Effect on growth of Aspergillus fumigatus, observation with electronic microscope. Format: cell-based. The following applies: incubation with 6 μM of spheniscin-2. The text has this:
(FIG. 9A) Control growth: the aspergillar heads terminated by the spores are clearly visible (X 400). […] The effect of spheniscin-2 on A. fumigatus is consequently not of the direct fungicidal type on the spores but is manifested by a halt of growth by inhibition of the reproduction of the fungus because there is no longer formation of aspergillar heads, structures implicated in the reproduction/proliferation process of this fungus.

Assay [2] has as its system E. coli 1106. As to the kind of experiment: Bactericidal or bacteriostatic effect, spreading on Petri dishes and counting colonies. Format: cell-based, Escherichia coli. The following applies: colonies counted after 24 h of incubation, Yes/No. As for the experimental part: as §1
The subject of another assay is Neurospora crassa. Format: cell-based. The following applies: interval [a]-[b], tested spheniscin-2 0.2-100 μM, thanatin 0.4-41.1 μM. As for the experimental part: (§2) The spores of the fungus N. crassa to be tested were suspended in a suitable culture medium of the “potato infusion—glucose” type. Preference was given to the use of 12 g of potato dextrose broth medium (1/2 PDB, Difco) per 1 liter of demineralized water. Two antibiotics were added to the culture medium: cefotaxime (final concentration at 100 μg/ml) and tetracycline (final concentration at 10 μg/ml).
(§3) Antimicrobial activities were detected by a growth inhibition test in microtitration plates (Hétru and Bulet, 1997). One deposited […] of each fraction collected in mictrotitration plates in the presence of 90 μl of culture medium containing the microorganisms (at a final concentration equivalent to 1 mDO at 600 nm).
(§4) For the filamentous fungi, the incubation was performed at 37° C. in a humid atmosphere for 48 hours.
(§5) The antimicrobial activities expressed in minimal inhibitory concentration (MIC) of spheniscin 2 (concentrations comprised between 0.2 μM and 100 μM) were determined against bacteria, yeasts and fungi using a growth inhibition test in liquid medium in microtitration plates (for the detailed protocol see example 2.4 as well as Hétru and Bulet, 1997). […]

Assay [3] deals with Aspergillus fumigatus. Format: cell-based. The conditions noted are these: interval [a]-[b], tested spheniscin-2 0.2-100 μM, thanatin 0.4-41.1 μM. As for the experimental part:
as §2, §3, §4, §5

Assay [4] relates to Vibrio metshnikovii NCTC 8483. Nature of the assay: MIC, growth inhibition test in liquid medium in microtitration plates. Format: cell-based. The conditions noted are these: interval [a]-[b], tested spheniscin-2 0.2-100 μM. As for the experimental part:
(§6) The bacteria to be tested were suspended in a suitable nutritive medium of the “poor broth” type corresponding to a solution of bactotryptone at 10 g/l with the addition of NaCl 5 g/l in ultrapure water.
as §3
(§7) For the bacteria and the yeast, incubation was performed at 30° C. for 12-24 h under agitation. The growth of the microorganisms was measured by monitoring the absorbance at 600 nm by means of a spectrophotometer reader of microtitration plates.
as §5

The test system of assay [5] is V. anguillarum ATCC 19264. Described as above. Format: cell-based. The conditions noted are these: interval [a]-[b], tested spheniscin-2 0.2-100 μM. As for the experimental part: as §6, §3, §7, §5
The next assay concerns C. albicans IHEM 8060. Format: cell-based, Candida albicans. The following applies: interval [a]-[b], tested spheniscin-2 0.2-100 μM, MSI-94 0.2-10 μM. As for the experimental part:
(§8) The yeast strain C. albicans to be tested was incubated in a suitable culture medium of the “Sabouraud” type.
as §3, §7
(§9) The antimicrobial activities expressed in minimal inhibitory concentration (MIC) of spheniscin 2 (concentrations comprised between 0.2 μM and 100 μM) were determined against bacteria, yeasts and fungi using a growth inhibition test in liquid medium in microtitration plates (for the detailed protocol see example 2.4 as well as Hétru and Bulet, 1997).
(§10) The minimal growth inhibitory concentration (MIC) corresponds to the interval [a]-[b] in which [a] is the strongest concentration tested for which the microorganism grows and [b] is the weakest concentration tested starting at which there is 100% inhibition of growth of the microorganism (Casteels and Tempst, 1994). […]

In a further assay the test system is B. cereus ATCC 11778. Nature of the assay: Bactericidal or bacteriostatic effect, spreading on Petri dishes and counting colonies. Format: cell-based, Bacillus cereus. The following applies: colonies counted after 24 h of incubation, Yes/No. As for the experimental part:
as §1

For a further assay, the system named is C. tropicalis. Format: cell-based. The following applies: interval [a]-[b], tested spheniscin-2 0.2-100 μM, MSI-94 0.2-10 μM. As for the experimental part:
as §8, §3, §7, §9, §10

The next assay has as its system Candida glabrata. Format: cell-based. The following applies: tested spheniscin-2 0.2-100 μM, MSI-94 0.2-10 μM, ND = activity not detected in range tested. As for the experimental part:
as §8, §3, §7, §9, §10

Assay [6] deals with E. coli 1106. Format: cell-based, Escherichia coli. The following applies: interval [a]-[b], tested spheniscin-2 0.2-100 μM, MSI-94 0.2-10 μM. As for the experimental part: as §6, §3, §7, §5
For assay [7], the system named is Pseudomonas aeruginosa ATCC 82118. Format: cell-based. The conditions noted are these: interval [a]-[b], tested spheniscin-2 0.2-100 μM, MSI-94 0.2-10 μM. As for the experimental part:
as §6, §3, §7, §9
(§11) The minimal growth inhibitory concentration (MIC) corresponds to the interval [a]-[b] in which [a] is the strongest concentration tested for which the microorganism grows and [b] is the weakest concentration tested starting at which there is 100% inhibition of growth of the microorganism (Casteels and Tempst, 1994). The control peptides were MSI-94 (a peptide of the mangainin family stemming from the skin of the batrachian Xenopus laevis and presenting a broad spectrum of antimicrobial activity; Maloy and Kari, 1995) for testing against the bacteria and yeasts; and thanatin (an antifungal peptide stemming from the insect Podisus maculiventris; Fehlbaum et al., 1996) for testing against the filamentous fungi.

In the next assay the test system is S. haemolyticus. Format: cell-based. The following applies: interval [a]-[b], tested spheniscin-2 0.2-100 μM, MSI-94 0.2-10 μM. As for the experimental part:
as §6, §3, §7, §9, §11

In another assay the test system is Listeria monocytogenes. Format: cell-based. The following applies: interval [a]-[b], tested spheniscin-2 0.2-100 μM, MSI-94 0.2-10 μM. As for the experimental part:
as §6, §3, §7, §9, §11

Another assay concerns Micrococcus luteus. Format: cell-based. The conditions noted are these: interval [a]-[b], tested spheniscin-2 0.2-100 μM, MSI-94 0.2-10 μM. As for the experimental part:
as §6, §3, §7, §9, §11

The test system of the next assay is Salmonella typhimurium. Format: cell-based. The following applies: interval [a]-[b], tested spheniscin-2 0.2-100 μM, MSI-94 0.2-10 μM. As for the experimental part:
as §6, §3, §7, §9, §11

A further assay relates to Nocardia asteroides. Format: cell-based. The conditions noted are these: interval [a]-[b], tested spheniscin-2 0.2-100 μM, MSI-94 0.2-10 μM. As for the experimental part: as §6, §3, §7, §9, §11
For a further assay, the system named is Staphylococcus aureus. Format: cell-based. The conditions noted are these: interval [a]-[b], tested spheniscin-2 0.2-100 μM, MSI-94 0.2-10 μM. As for the experimental part: as §6, §3, §7, §9, §11
A further assay concerns Aerococcus viridans. Format: cell-based. The following applies: interval [a]-[b], tested spheniscin-2 0.2-100 μM, MSI-94 0.2-10 μM. As for the experimental part:
as §6, §3, §7, §9, §11

Another assay has as its system Escherichia coli SBS 363. Format: cell-based. The following applies: interval [a]-[b], tested spheniscin-2 0.2-100 μM, MSI-94 0.2-10 μM. As for the experimental part:
as §6, §3, §7, §9, §11

The next assay deals with B. megaterium. Format: cell-based. The conditions noted are these: interval [a]-[b], tested spheniscin-2 0.2-100 μM, MSI-94 0.2-10 μM. As for the experimental part:
as §6, §3, §7, §9, §11

In the case of `CC[C@H](C)[C@@H]1NC(=O)[C@@H]2CCCN2C(=O)[C@H]([C@@H](C)CC)NC(=O)[C@H](CO)NC(=O)[C@@H]2CCCN2C(=O)[C@H](Cc2ccccc2)NC(=O)[C@H](CCCNC(=N)N)NC(=O)[C@@H]2CSSC[C@@H](C(=O)N[C@@H](CCCNC(=N)N)C(=O)N[C@@H](CCCNC(=N)N)C(=O)N[C@H](C(=O)N[C@@H](Cc3c[nH]c4ccccc34)C(=O)O)C(C)C)NC(=O)[C@@H]3CSSC[C@H](NC(=O)[C@H](CC(C)C)NC(=O)CNC(=O)[C@H](Cc4ccccc4)NC(=O)[C@@H](N)CO)C(=O)N[C@@H](CCCNC(=N)N)C(=O)N[C@@H](CC(C)C)C(=O)N[C@@H](CCCNC(=N)N)C(=O)N[C@@H](CCCNC(=N)N)C(=O)NCC(=O)N[C@@H](Cc4ccccc4)C(=O)N[C@@H](CSSC[C@H](NC(=O)[C@H](CCCNC(=N)N)NC(=O)CNC1=O)C(=O)N[C@@H](CO)C(=O)N[C@@H](CCCNC(=N)N)C(=O)N[C@@H](Cc1ccccc1)C(=O)N[C@@H](C(C)C)C(=O)N[C@@H](CCC(N)=O)C(=O)N3)C(=O)N[C@@H](C)C(=O)N[C@@H](CCCNC(=N)N)C(=O)NCC(=O)N[C@@H](CCCNC(=N)N)C(=O)N2` [spheniscin-2] (HELM PEPTIDE1{S.F.G.L.C.R.L.R.R.G.F.C.A.R.G.R.C.R.F.P.S.I.P.I.G.R.C.S.R.F.V.Q.C.C.R.R.V.W}$PEPTIDE1,PEPTIDE1,5:R3-33:R3|PEPTIDE1,PEPTIDE1,12:R3-27:R3|PEPTIDE1,PEPTIDE1,17:R3-34:R3$$$V2.0; N-terminus and C-terminus assumed), the results for the “Bactericidal effect of spheniscin-2” value in the assay with S. saprophyticus, in the assay on E. coli 1106 [2] and with B. cereus ATCC 11778 were “No”, “Yes” and “Yes”, respectively. Also, the “Effect on the growth of Aspergillus fumigatus (FIG. 9B)” value with Aspergillus fumigatus [1] was “disappearance of the aspergillar heads”. Moreover, the MIC (usually the smallest concentration in the dilution series that meets the test's criterion for growth inhibition) against Neurospora crassa fell in the range of 3 to 6 µM; in the assay on Aspergillus fumigatus [3] it was 3 to 6 µM; in [4], 25 to 50 µM; in assay [5], 25 to 50 µM; against C. albicans IHEM 8060 it was 50 to 100 µM; with C. tropicalis, 1.5 to 3 µM. Moreover, the MIC in the assay on Candida glabrata was more than 100 µM; against E. coli 1106 [6], 1.5 to 3 µM; in [7], 6 to 12 µM; against S. haemolyticus, 1.5 to 3 µM; against Listeria monocytogenes, 6 to 12 µM; against Micrococcus luteus, 1.5 to 3 µM. Besides, the MIC was in the range of 6 to 12 µM with Salmonella typhimurium; 0.8 to 1.5 µM against Nocardia asteroides; 1.5 to 3 µM in the assay with Staphylococcus aureus; 0.4 to 0.8 µM in the assay with Aerococcus viridans; 0.8 to 1.5 µM with Escherichia coli SBS 363; 0.4 to 0.8 µM against B. megaterium.
